From ChEMBL document CHEMBL3045961, “Synthesis and evaluation of some pyrimidine analogs against toxoplasmosis” (Med Chem Res, 2008)
Calls of active or inactive are those of the source. No cut-off for these calls is given here.

Assays:
Toxoplasma gondii [1] = assay: Antiparasitic activity Toxoplasma gondii RH infected Swiss albino mouse assessed as extramedullary hematopoiesis in host spleen at 0.25 mg, po administered 48 hr post-infection measured after 3 days by haematoxylin and eosin staining relative to control; type: functional, organism-based
Toxoplasma gondii [2] = assay: Antiparasitic activity Toxoplasma gondii RH infected Swiss albino mouse assessed as clear lymphocytes in host liver focal granuloma at 0.25 mg, po administered 48 hr post-infection measured after 3 days by haematoxylin and eosin staining relative to control; type: functional, organism-based
Toxoplasma gondii [3] = assay: Antiparasitic activity Toxoplasma gondii RH infected Swiss albino mouse assessed as increase in host spleen red pulp at 0.25 mg, po administered 48 hr post-infection measured after 3 days by haematoxylin and eosin staining relative to control; type: functional, organism-based
Dihydrofolate reductase = target: T1, Dihydrofolate reductase (Homo sapiens, UniProt P00374); assay: Inhibition of Homo sapiens (human) dihydrofolate reductase using dihydrofolate as substrate incubated for 5 min prior to substrate addition by spectrophotometric assay
T1 sequence (P00374 whole entry): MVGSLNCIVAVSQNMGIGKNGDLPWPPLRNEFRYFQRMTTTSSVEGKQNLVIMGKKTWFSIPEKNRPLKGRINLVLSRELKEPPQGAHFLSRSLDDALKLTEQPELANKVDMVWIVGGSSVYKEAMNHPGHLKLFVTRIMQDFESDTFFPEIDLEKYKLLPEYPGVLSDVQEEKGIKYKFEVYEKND

Toxoplasma gondii [4] = assay: Antiparasitic activity Toxoplasma gondii RH infected Swiss albino mouse assessed as decrease in interstitial pneumonia at 0.25 mg, po administered 48 hr post-infection measured after 3 days by haematoxylin and eosin staining relative to control; type: functional, organism-based
[5] = target: T2, Bifunctional dihydrofolate reductase-thymidylate synthase (Cryptosporidium parvum, UniProt Q27552); assay: Inhibition of Cryptosporidium parvum recombinant DHFR using dihydrofolate as substrate incubated for 5 min prior to substrate addition by spectrophotometric assay
T2 sequence (Q27552 whole entry): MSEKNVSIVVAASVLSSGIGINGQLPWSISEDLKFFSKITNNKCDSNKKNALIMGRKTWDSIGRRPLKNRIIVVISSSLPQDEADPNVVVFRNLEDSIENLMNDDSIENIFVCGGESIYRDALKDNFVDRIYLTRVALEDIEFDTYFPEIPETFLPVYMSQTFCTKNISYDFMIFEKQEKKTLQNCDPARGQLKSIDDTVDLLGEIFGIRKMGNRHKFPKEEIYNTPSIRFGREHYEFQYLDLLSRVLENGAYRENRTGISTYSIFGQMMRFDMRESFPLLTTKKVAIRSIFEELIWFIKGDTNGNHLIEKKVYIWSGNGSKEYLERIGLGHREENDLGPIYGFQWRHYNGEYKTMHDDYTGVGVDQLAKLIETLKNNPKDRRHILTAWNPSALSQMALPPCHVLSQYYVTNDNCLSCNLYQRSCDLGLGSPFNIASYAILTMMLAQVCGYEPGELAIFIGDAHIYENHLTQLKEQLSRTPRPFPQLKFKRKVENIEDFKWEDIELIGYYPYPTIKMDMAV

Toxoplasma gondii [6] = assay: Antiparasitic activity Toxoplasma gondii RH infected Swiss albino mouse assessed as megakaryocytes in host spleen at 0.25 mg, po administered 48 hr post-infection measured after 3 days by haematoxylin and eosin staining relative to control; type: functional, organism-based
Toxoplasma gondii [7] = assay: Antiparasitic activity Toxoplasma gondii RH infected Swiss albino mouse assessed as disorganised parasite conoid in host peritoneal exudate at 0.25 mg, po administered 48 hr post-infection measured after 3 days by scanning electron microscopic analysis; type: functional, organism-based
Toxoplasma gondii [8] = assay: Antiparasitic activity Toxoplasma gondii RH infected Swiss albino mouse assessed as clear mononuclear cells in host liver focal granuloma at 0.25 mg, po administered 48 hr post-infection measured after 3 days by haematoxylin and eosin staining relative to control; type: functional, organism-based
Toxoplasma gondii [9] = assay: Antiparasitic activity Toxoplasma gondii RH infected Swiss albino mouse assessed as decrease in Toxoplasma antigen in host serum at 0.25 mg, po administered 48 hr post-infection measured after 3 days by Co-A test relative to control; type: functional, organism-based
Toxoplasma gondii [10] = assay: Antiparasitic activity Toxoplasma gondii RH infected Swiss albino mouse assessed as parasite dimpled conoid in host peritoneal exudate at 0.25 mg, po administered 48 hr post-infection measured after 3 days by scanning electron microscopic analysis; type: functional, organism-based
Toxoplasma gondii [11] = assay: Antiparasitic activity Toxoplasma gondii RH infected Swiss albino mouse assessed as decrease in host spleen white pulp at 0.25 mg, po administered 48 hr post-infection measured after 3 days by haematoxylin and eosin staining relative to control; type: functional, organism-based
Toxoplasma gondii [12] = assay: Antiparasitic activity Toxoplasma gondii RH infected Swiss albino mouse assessed as loss of parasite crescent shape in host peritoneal exudate at 0.25 mg, po administered 48 hr post-infection measured after 3 days by scanning electron microscopic analysis; type: functional, organism-based
Toxoplasma gondii [13] = assay: Antiparasitic activity Toxoplasma gondii RH infected Swiss albino mouse assessed as decrease in host liver necrosis at 0.25 mg, po administered 48 hr post-infection measured after 3 days by haematoxylin and eosin staining relative to control; type: functional, organism-based
Toxoplasma gondii [14] = assay: Antiparasitic activity Toxoplasma gondii RH infected Swiss albino mouse assessed as parasite deformity in host peritoneal exudate at 0.25 mg, po administered 48 hr post-infection measured after 3 days by light microscopic analysis; type: functional, organism-based
[15] = target: T3, Bifunctional dihydrofolate reductase-thymidylate synthase (Cryptosporidium parvum) (UniProt Q27552); assay: Ratio of trimethorpin IC50 to compound IC50 for Cryptosporidium parvum recombinant DHFR
T3 sequence (whole entry): T2 sequence (Q27552 whole entry)

Toxoplasma gondii [16] = assay: Antiparasitic activity Toxoplasma gondii RH infected Swiss albino mouse assessed as decrease in host spleen necrosis at 0.25 mg, po administered 48 hr post-infection measured after 3 days by haematoxylin and eosin staining relative to control; type: functional, organism-based
Toxoplasma gondii [17] = assay: Antiparasitic activity against Toxoplasma gondii RH infected Swiss albino mouse assessed as decrease in tachozyte count in spleen at 0.25 mg, po administered 48 hr post-infection measured after 3 days by Geimsa staining relative to control; type: functional, organism-based
Toxoplasma gondii [18] = assay: Antiparasitic activity Toxoplasma gondii RH infected Swiss albino mouse assessed as decrease in host lung congestion at 0.25 mg, po administered 48 hr post-infection measured after 3 days by haematoxylin and eosin staining relative to control; type: functional, organism-based
Toxoplasma gondii [19] = assay: Antiparasitic activity Toxoplasma gondii RH infected Swiss albino mouse assessed as decreased parasite movement in host peritoneal exudate at 0.25 mg, po administered 48 hr post-infection measured after 3 days by light microscopic analysis; type: functional, organism-based
Toxoplasma gondii [20] = assay: Antiparasitic activity Toxoplasma gondii RH infected Swiss albino mouse assessed as epethelioid granuloma in host spleen at 0.25 mg, po administered 48 hr post-infection measured after 3 days by haematoxylin and eosin staining relative to control; type: functional, organism-based
Toxoplasma gondii [21] = assay: Antiparasitic activity against Toxoplasma gondii RH infected Swiss albino mouse assessed as decrease in tachozyte count in liver at 0.25 mg, po administered 48 hr post-infection measured after 3 days by Geimsa staining relative to control; type: functional, organism-based
Toxoplasma gondii [22] = assay: Antiparasitic activity Toxoplasma gondii RH infected Swiss albino mouse assessed as homogenous tachyzoites in host peritoneal exudate at 0.25 mg, po administered 48 hr post-infection measured after 3 days by scanning electron microscopic analysis; type: functional, organism-based
Toxoplasma gondii [23] = assay: Antiparasitic activity Toxoplasma gondii RH infected Swiss albino mouse assessed as deep ridged parasite surface in host peritoneal exudate at 0.25 mg, po administered 48 hr post-infection measured after 3 days by scanning electron microscopic analysis; type: functional, organism-based
Toxoplasma gondii [24] = assay: Antiparasitic activity Toxoplasma gondii RH infected Swiss albino mouse assessed as smooth tachyzoites in host peritoneal exudate at 0.25 mg, po administered 48 hr post-infection measured after 3 days by scanning electron microscopic analysis; type: functional, organism-based
Toxoplasma gondii [25] = assay: Antiparasitic activity Toxoplasma gondii RH infected Swiss albino mouse assessed as dimpled parasite surface in host peritoneal exudate at 0.25 mg, po administered 48 hr post-infection measured after 3 days by scanning electron microscopic analysis; type: functional, organism-based

IC50 (Dihydrofolate reductase) [nM] | IC50 [5] [nM] | Ratio IC50 [15] | SMILES | Activity (Toxoplasma gondii [1]) | Activity (Toxoplasma gondii [2]) | Activity (Toxoplasma gondii [3]) | Activity (Toxoplasma gondii [4]) | Activity (Toxoplasma gondii [6]) | Activity (Toxoplasma gondii [8]) | Activity (Toxoplasma gondii [9]) | Activity (Toxoplasma gondii [11]) | Activity (Toxoplasma gondii [13]) | Activity (Toxoplasma gondii [14]) | Activity (Toxoplasma gondii [16]) | Activity (Toxoplasma gondii [17]) | Activity (Toxoplasma gondii [18]) | Activity (Toxoplasma gondii [19]) | Activity (Toxoplasma gondii [20]) | Activity (Toxoplasma gondii [21]) | other results
8.9 | 75 | 40 | CCOC(=O)C1=C(C)N=C(SCCC(=O)O)NC1c1ccccc1OC (stereo not given) | inactive | Active | Active | Active | inactive | Active | Active | Active | Active | Active | Active | Active | inactive | Active | inactive | Active | Activity (Toxoplasma gondii [7]): Active; Activity (Toxoplasma gondii [10]): Active; Activity (Toxoplasma gondii [12]): Active
94 | 65 | 40 | CC(=O)C1=C(C)N=C(SCCC(=O)O)NC1c1cccc(O)c1 (stereo not given) | inactive | Active | Active | Active | inactive | Active | Active | Active | Active | Active | Active | Active | inactive | Active | inactive | Active | Activity (Toxoplasma gondii [22]): Active; Activity (Toxoplasma gondii [23]): Active; Activity (Toxoplasma gondii [24]): Active; Activity (Toxoplasma gondii [25]): Active
